According to US6331546A, “Use of 2-amino-3,4-dihydroquinazolines for the production of a medicament for the treatment or prophylaxis of illnesses caused by ischemic conditions” (Aventis Pharma Deutschland GmbH, priority 1999, dated 2001):
Counter-ions that a name gives are not always drawn.

Molecular target: T1, Na+/H+ exchanger of rabbit erythrocytes (Oryctolagus cuniculus, UniProt P23791)
T1 construct: endogenous in cells; host or cells: erythrocytes in fresh heparinised blood of White New Zealand rabbits (Ivanovas)
Assay: Inhibition of the Na+/H+ exchanger of rabbit erythrocytes (amiloride-sensitive sodium influx, flame photometry)
Type: cell-based
Details: hyperosmolar salt/sucrose medium, pH 7.4, 37° C.
Source text: Inhibition of the Na^+ /H^+ Exchanger of Rabbit Erythrocytes White New Zealand rabbits (Ivanovas) received a standard diet with 2% cholesterol for six weeks in order to activate the Na^+ /H^+ exchange and thus to be able to determine the Na^+ influx into the erythrocytes via Na^+ /H^+ exchange by flame photometry. The blood was removed from the auricular arteries and rendered uncoagulable by means of 25 IU of potassium heparin. A part of each sample was used for the duplicate determination of the hematocrit by centrifugation. Aliquots of 100 μl in each case served for the measurement of the Na^+ starting content of the erythrocytes. In order to determine the amiloride-sensitive sodium influx, 100 μl of each blood sample in 5 ml in each case of a hyperosmolar salt/sucrose medium (mmol/I: 140 NaCl, 3 KCl, 150 sucrose, 0.1 ouabain, 20 tris-hydroxymethyl-aminomethane) were incubated at pH 7.4 and 37° C. The erythrocytes were then washed three times with ice-cold MgCl^2 /ouabain solution (mmol/I: 112 MgCl2, 0.1 ouabain) and hemolyzed in 2.0 ml of distilled water. The intracellular sodium content was determined by flame photometry. The Na^+ net influx was calculated from the difference between sodium starting values and the sodium content of the erythrocytes after incubation. The amiloride-inhibitable sodium influx followed from the difference in the sodium content of the erythrocytes after incubation with and without amiloride 3×10^-4 mol/I. The procedure was the same in the case of the compounds according to the invention.

T1 sequence (P23791 whole entry): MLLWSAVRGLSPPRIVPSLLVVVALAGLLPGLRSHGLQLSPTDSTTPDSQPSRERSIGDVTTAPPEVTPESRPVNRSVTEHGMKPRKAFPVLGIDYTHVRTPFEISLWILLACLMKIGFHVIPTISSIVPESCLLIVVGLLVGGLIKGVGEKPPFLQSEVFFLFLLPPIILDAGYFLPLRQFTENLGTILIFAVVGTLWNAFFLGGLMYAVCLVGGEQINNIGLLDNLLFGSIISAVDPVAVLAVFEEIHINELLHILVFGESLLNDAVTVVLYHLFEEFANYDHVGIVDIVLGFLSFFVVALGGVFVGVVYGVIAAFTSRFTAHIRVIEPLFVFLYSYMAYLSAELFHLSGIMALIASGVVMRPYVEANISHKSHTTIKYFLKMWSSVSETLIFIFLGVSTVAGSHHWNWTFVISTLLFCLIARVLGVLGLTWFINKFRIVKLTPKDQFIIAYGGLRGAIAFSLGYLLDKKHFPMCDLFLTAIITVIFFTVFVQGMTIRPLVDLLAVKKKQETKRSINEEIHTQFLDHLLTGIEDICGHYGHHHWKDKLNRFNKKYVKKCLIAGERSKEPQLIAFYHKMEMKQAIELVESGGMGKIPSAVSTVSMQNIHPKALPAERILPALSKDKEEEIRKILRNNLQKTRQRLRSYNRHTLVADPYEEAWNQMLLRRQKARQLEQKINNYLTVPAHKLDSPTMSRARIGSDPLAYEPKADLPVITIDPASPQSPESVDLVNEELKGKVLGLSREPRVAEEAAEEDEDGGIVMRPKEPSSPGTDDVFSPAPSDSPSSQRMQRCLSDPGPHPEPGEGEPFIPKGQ

SMILES | IC50
COc1ccc(C2NC(N)=Nc3ccccc32)cc1 (stereo not drawn) [Example 1, 2-Amino-4-(4-methoxyphenyl)-3,4-dihydroquinazoline Hydrochloride] | 3.4 µM
COc1ccc(C2NC(N)=Nc3ccccc32)cc1OC (stereo not drawn) [Example 2, 2-Amino-4-(3,4-dimethoxyphenyl)-3,4-dihydroquinazolinium Fumarate] | 3.2 µM
COc1ccc(C2c3ccccc3N=C(N)N2C)cc1OC (stereo not drawn) [Example 3, 2-Amino4-(3,4-dimethoxyphenyl)-3-methyl-3,4-dihydro-quinazolinium Fumarate] | 4.1 µM
